# Test system: Hartley-type male guinea pigs
# Test: Guinea Pig Homogeneous Skin Passive Anaphylaxis Assay (PCA reaction)
# Format: in vivo, guinea pig (Hartley-type)
# Conditions: 10 mg/kg oral, 48 h after sensitization
# Experimental: In order to confirm the anti-allergic action of the compounds according to the present invention, as an anti-allergic action confirmation assay, the widely used Guinea Pig Homogeneous Skin Passive Anaphylaxis Assay (PCA Reaction Assay; Passive Cutaneous Anaphylaxis Reaction Assay) was carried out. The assay method used will be explained in the following.
# Assay method: Hartley-type male guinea pigs (body weight: 250~300 g) were sensitized by the following procedure; a mixture of 2 μg of egg albumin (OVA) and 5 μg of aluminium hydroxide gel was administered intraperitoneally 3 times every 2 weeks, and the anti-OVA blood serum was manufactured.
# The anti-blood serum obtained was then diluted 120 times using physiological saline solution, and then to groups each containing 6 shaved guinea pigs, was injected at a quantity of 0.05 ml respectively, into two positions in the back portion, inside the skin of each animal.
# After the 48th hour of sensitization, 10 mg/kg of the test substance to be tested was orally administered, following which a mixture of 2 mg OVA and 5 mg of Evans Blue was administered by intraveneous injection into the hind leg, triggering the anaphylaxis reaction. As the positive control, Tranilast, a well known anti-allergic agent, was used, and in the same manner as the substances to be tested, 100 mg/kg of it was orally administered after the 48th hour of sensitization.
# 30 minutes after triggering the reaction, the animals were bled to death under ether anesthesia, and their back portion skins were peeled off. The long and short diameters of pigment leakage spots on the interior surface of the skins were measured, and the product of these (mm^2) were entered into formula 1 as "pigment leakage amount", from which the allergic reaction inhibitory index wins calculated. [formula]
# I: Allergic reaction inhibitory index (%)
# A: Pigment leakage amount of solvent control group
# B: Pigment leakage amount of test substance group
# C: Pigment leakage amount of […]
row,SMILES,Allergic reaction inhibitory index (%)
1,"CCCCOc1c(O)c2c(OC)cccc2oc1=O [Compound 225, 3-(butoxy)-4-hydroxy-5-(methoxy)-2H-1-benzopyran-2-one]",35%

# Same assay, conditions: Cavia porcellus, 10 mg/kg oral, 48 h after sensitization, read-out: Allergic reaction inhibitory index (%)
row,SMILES,inhibition in vivo at 10 mg/kg
1,"CCCCCCCCCCOc1cccc2oc(=O)c(OC(C)=O)c(OC(=O)c3ccccc3)c12 [Compound 232, 3-(acetoxy)-4-(benzoyloxy)-5-(decyloxy)-2H-1-benzopyran-2-one]",32%
2,"O=c1oc2cc(O)ccc2c(O)c1O [Compound 5, 3,4,7-trihydroxy-2H-1-benzopyran-2-one]",68%
3,"COc1c(OC/C=C(\C)CCC=C(C)C)c(=O)oc2cccc(OC/C=C(\C)CCC=C(C)C)c12 [Compound 257, 3,5-(digeranyloxy)-4-(methoxy)-2H-1-benzopyran-2-one]",31%
4,"CC(C)=CCC/C(C)=C/COc1c(O)c2c(O)cccc2oc1=O [Compound 187, 3-(geranyloxy)-4,5-(dihydroxy)-2H-1-benzopyran-2-one]",30%
5,"CCCCCCCCCCOc1ccc2c(OC/C=C(\C)CCC=C(C)C)c(OC(C)C)c(=O)oc2c1 [Compound 72, 3-(isopropoxy)-4-(geranyloxy)-7-(decyloxy)-2H-1-benzopyran-2-one]",34%
6,"CC(=O)Oc1c(O)c(=O)oc2cc(OC(C)C)ccc12 [Compound 46, 3-hydroxy-4-(acetoxy)-7-(isopropoxy)-2H-1-benzopyran-2-one]",34%
7,"COc1c(OC(C)=O)c2c(OC/C=C(\C)CCC=C(C)C)cccc2oc1=O [Compound 252, 3-(methoxy)-4-(acetoxy)-5-(geranyloxy)-2H-1-benzopyran-2-one]",32%
8,"COc1c(O)c2cccc(OC)c2oc1=O [Compound 115, 3,8-(dimethoxy)-4-hydroxy-2H-1-benzopyran-2-one]",33%
9,"CC(C)Oc1c(O)c2c(O)cccc2oc1=O [Compound 182, 3-(isopropoxy)-4,5-(dihydroxy)-2H-1-benzopyran-2-one]",31%
10,"COc1cccc2oc(=O)c(O)c(OC/C=C(\C)CCC=C(C)C)c12 [Compound 204, 3-hydroxy-4-(geranyloxy)-5-(methoxy)-2H-1-benzopyran-2-one]",30%
11,"CC(C)=CCC/C(C)=C/COc1cccc2c(OC(C)C)c(O)c(=O)oc12 [Compound 163, 3-hydroxy-4-(isopropoxy)-8-(geranyloxy)-2H-1-benzopyran-2-one]",32%
12,"COc1c(O)c2cccc(OC/C=C(\C)CCC=C(C)C)c2oc1=O [Compound 162, 3-(methoxy)-4-hydroxy-8-(geranyloxy)-2H-1-benzopyran-2-one]",31%
13,"CC(C)Oc1c(O)c2ccc(O)cc2oc1=O [Compound 15, 3-(isopropoxy)-4,7-(dihydroxy)-2H-1-benzopyran-2-one]",41%
14,"CCCCCCCCCCOc1c(OC(=O)c2ccccc2)c2cccc(OC(C)C)c2oc1=O [Compound 137, 3-(decyloxy)-4-(benzoyloxy)-8-(isopropoxy)-2H-1-benzopyran-2-one]",32%
15,"CCCCCCCCCCOc1cccc2c(O)c(OC(=O)c3ccccc3)c(=O)oc12 [Compound 143, 3-(benzoyloxy)-4-hydroxy-8-(decyloxy)-2H-1-benzopyran-2-one]",30%
16,"CCCCCCCCCCOc1ccc2c(OC/C=C(\C)CCC=C(C)C)c(OC/C=C(\C)CCC=C(C)C)c(=O)oc2c1 [Compound 73, 3-4-(digeranyloxy)-7-(decyloxy)-2H-1-benzopyran-2-one]",30%
17,"COc1c(OC(C)=O)c2cccc(O)c2oc1=O [Compound 101, 3-(methoxy)-4-(acetoxy)-8-hydroxy-2H-1-benzopyran-2-one]",30%
18,"COc1ccc2c(O)c(O)c(=O)oc2c1 [Compound 28, 3,4-dihydroxy-7-(methoxy)-2H-1-benzopyran-2-one]",53%
19,"CC(C)=CCC/C(C)=C/COc1ccc2c(OC/C=C(\C)CCC=C(C)C)c(OC(=O)c3ccccc3)c(=O)oc2c1 [Compound 86, 3-(benzoyloxy)-4,7-(digeranyloxy)-2H-1-benzopyran-2-one]",30%
20,"COc1ccc2c(OC/C=C(\C)CCC=C(C)C)c(OC(C)=O)c(=O)oc2c1 [Compound 40, 3-(acetoxy)-4-(geranyloxy)-7-(methoxy)-2H-1-benzopyran-2-one]",34%
21,"CC(C)=CCC/C(C)=C/COc1c(OC(=O)c2ccccc2)c(=O)oc2c(O)cccc12 [Compound 106, 3-(benzoyloxy)-4-(geranyloxy)-8-hydroxy-2H-1-benzopyran-2-one]",31%

row,SMILES,inhibition in vivo at 10 mg/kg
1,"COc1ccc2c(OC(C)C)c(OC(C)=O)c(=O)oc2c1 [Compound 32, 3-(acetoxy)-4-(isopropoxy)-7-(methoxy)-2H-1-benzopyran-2-one]",33%
2,"CCCCCCCCCCOc1cccc2c(O)c(O)c(=O)oc12 [Compound 144, 3,4-(dihydroxy)-8-(decyloxy)-2H-1-benzopyran-2-one]",34%
3,"CC(C)=CCC/C(C)=C/COc1c(OC(C)C)c2c(OC(C)C)cccc2oc1=O [Compound 221, 3-(geranyloxy)-4,5-(diisopropoxy)-2H-1-benzopyran-2-one]",33%
4,"COc1cccc2c(O)c(OC(=O)c3ccccc3)c(=O)oc12 [Compound 110, 3-(benzoyloxy)-4-hydroxy-8-(methoxy)-2H-1-benzopyran-2-one]",31%
5,"CC(C)=CCC/C(C)=C/COc1c(OC(=O)c2ccccc2)c(=O)oc2cc(O)ccc12 [Compound 23, 3-(benzoyloxy)-4-(geranyloxy)-7-hydroxy-2H-1-benzopyran-2-one]",30%
6,"CCCCCCCCCCOc1ccc2c(OC(C)C)c(OC)c(=O)oc2c1 [Compound 64, 3-(methoxy)-4-(isopropoxy)-7-(decyloxy)-2H-1-benzopyran-2-one]",30%
7,"CCCCCCCCCCOc1c(OC(C)=O)c(=O)oc2cccc(OC(C)C)c12 [Compound 217, 3-(acetoxy)-4-(decyloxy)-5-(isopropoxy)-2H-1-benzopyran-2-one]",30%
8,"CC(=O)Oc1c(O)c(=O)oc2cccc(O)c12 [Compound 178, 3,5-(dihydroxy)-4-(acetoxy)-2H-1-benzopyran-2-one]",30%
9,"CCCCCCCCCCOc1ccc2c(OC(C)=O)c(OC(C)=O)c(=O)oc2c1 [Compound 61, 3,4-(diacetoxy)-7-(decyloxy)-2H-1-benzopyran-2-one]",30%
10,"COc1c(OC(C)C)c2ccc(O)cc2oc1=O [Compound 18, 3-(methoxy)-4-(isopropoxy)-7-hydroxy-2H-1-benzopyran-2-one]",30%
11,"COc1c(OC(C)=O)c2cccc(OC/C=C(\C)CCC=C(C)C)c2oc1=O [Compound 166, 3-(methoxy)-4-(acetoxy)-8-(geranyloxy)-2H-1-benzopyran-2-one]",30%
12,"CCCCCCCCCCOc1cccc2oc(=O)c(OC/C=C(\C)CCC=C(C)C)c(OC)c12 [Compound 241, 3-(geranyloxy)-4-(methoxy)-5-(decyloxy)-2H-1-benzopyran-2-one]",32%
13,"CC(C)=CCC/C(C)=C/COc1c(O)c2c(OC(C)C)cccc2oc1=O [Compound 219, 3-(geranyloxy)-4-hydroxy-5-(isopropoxy)-2H-1-benzopyran-2-one]",36%
14,"COc1c(OC/C=C(\C)CCC=C(C)C)c2ccc(OC(C)C)cc2oc1=O [Compound 56, 3-(methoxy)-4-(geranyloxy)-7-(isopropoxy)-2H-1-benzopyran-2-one]",31%
15,"CC(C)=CCC/C(C)=C/COc1c(OC(C)C)c2cccc(OC(C)C)c2oc1=O [Compound 140, 3-(geranyloxy)-4,8-(diisopropoxy)-2H-1-benzopyran-2-one]",30%
16,"COc1c(OC(C)=O)c(=O)oc2cc(OC(C)C)ccc12 [Compound 51, 3-(acetoxy)-4-(methoxy)-7-(isopropoxy)-2H-1-benzopyran-2-one]",30%
17,"CC(C)=CCC/C(C)=C/COc1c(OC(C)C)c2ccc(OC(C)C)cc2oc1=O [Compound 55, 3-(geranyloxy)-4,7-(diisopropoxy)-2H-1-benzopyran-2-one]",33%
18,"CCCCCCCCCCOc1c(O)c2cccc(OC(C)C)c2oc1=O [Compound 133, 3-(decyloxy)-4-hydroxy-8-(isopropoxy)-2H-1-benzopyran-2-one]",36%
19,"CC(=O)Oc1c(OC(C)=O)c2cccc(OC(C)=O)c2oc1=O [Compound 95, 3,4,8-(triacetoxy)-2H-1-benzopyran-2-one]",30%
20,"COc1cccc2oc(=O)c(OC(C)=O)c(OC(=O)c3ccccc3)c12 [Compound 197, 3-(acetoxy)-4-(benzoyloxy)-5-(methoxy)-2H-1-benzopyran-2-one]",32%
21,"CCCCOc1cccc2c(O)c(O)c(=O)oc12 [Compound 128, 3,4-(dihydroxy)-8-(butyloxy)-2H-1-benzopyran-2-one]",40%

# Source: patent US5428059A, “Benzopyran derivatives and an anti-allergic agent possessing the same as the active ingredient” (Dainippon Ink & Chemicals, Inc., priority 1991, dated 1995)
